From patent US20210369677A1, “SMALL MOLECULE ACTIVATORS OF POLYCYSTIN-2 (PKD2) AND USES THEREOF” (Northwestern University, priority 2020, published 2021)

Target: T1, polycystin-2 channels (Mus musculus, UniProt O35245)
T1 construct: the mouse channel orthologue under endogenous expression in the kidney collecting duct; endogenous in cells; host or cells: primary inner medullary collecting duct (pIMCD) cells of ARL13B-EGFP mice
T1 sequence (O35245 1-966): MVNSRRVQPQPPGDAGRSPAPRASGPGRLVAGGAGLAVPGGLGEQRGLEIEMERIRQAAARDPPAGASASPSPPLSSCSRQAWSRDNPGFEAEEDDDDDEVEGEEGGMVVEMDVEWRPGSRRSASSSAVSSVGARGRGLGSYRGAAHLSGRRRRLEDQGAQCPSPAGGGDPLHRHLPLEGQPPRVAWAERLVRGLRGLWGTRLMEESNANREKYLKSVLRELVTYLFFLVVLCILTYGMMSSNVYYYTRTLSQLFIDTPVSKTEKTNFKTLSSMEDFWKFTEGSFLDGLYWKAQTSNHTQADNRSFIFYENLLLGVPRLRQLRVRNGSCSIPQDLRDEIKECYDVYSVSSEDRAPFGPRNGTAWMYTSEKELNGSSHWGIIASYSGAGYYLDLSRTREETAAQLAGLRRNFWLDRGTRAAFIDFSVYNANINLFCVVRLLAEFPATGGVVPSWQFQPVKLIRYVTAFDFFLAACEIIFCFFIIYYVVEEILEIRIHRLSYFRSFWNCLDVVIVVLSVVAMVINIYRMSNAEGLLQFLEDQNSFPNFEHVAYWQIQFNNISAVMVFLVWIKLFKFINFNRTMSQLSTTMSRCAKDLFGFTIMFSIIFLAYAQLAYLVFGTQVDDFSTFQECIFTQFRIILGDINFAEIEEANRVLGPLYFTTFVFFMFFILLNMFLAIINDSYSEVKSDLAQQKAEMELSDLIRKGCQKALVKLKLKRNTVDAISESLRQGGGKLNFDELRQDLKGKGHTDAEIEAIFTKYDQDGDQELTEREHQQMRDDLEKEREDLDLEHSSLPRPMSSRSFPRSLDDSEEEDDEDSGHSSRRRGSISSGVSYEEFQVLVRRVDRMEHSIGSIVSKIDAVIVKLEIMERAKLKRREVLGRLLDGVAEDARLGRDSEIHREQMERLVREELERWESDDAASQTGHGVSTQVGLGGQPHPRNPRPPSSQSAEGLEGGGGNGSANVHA
Assay: Inside-out cilia patch of pIMCD cells, calcium opening of polycystin-2 channels
Type: cell-based
Settings: Pkd2+/+ mice; read-out: EC50, potency of calcium opening polycystin-2 channels
Method: Cell culture of primary inner medullary collecting duct cells and immortalized cell lines. Primary inner medullary collecting ducts cells (pIMCD) were isolated from WT or Pkd2^del-Z/del-Z mice co-expressing the ARL13B-EGFP cilia reporter using the previously described method (Liu et al., 2018). Briefly, inner medullae were removed from the kidney and disassociated using a Dulbecco's phosphate buffered solution (DPBS) containing 2 mg/ml collagenase A and 1 mg/ml hyaluronidase. After mechanical disassociation on ice, medullary cells were cultured in Dulbecco's modified essential medium (DMEM) supplemented with 10% fetal bovine serum (FBS) and 100 units/ml penicillin/100 μg/ml streptomycin. Cilia were patched from cells within 6 days after isolation and within one passage. HEK PKD2^Null cell lines were generated using the CRISPR/Cas9 gene editing kit available from Addgene and authenticated using PCR analysis, as previously described (Liu et al., 2018). […]
Electrophysiology. The electrophysiologist was blinded by a third party in the laboratory, where test groups were assigned a letter to conceal the genetic identity of the cells being evaluated. […] Ciliary ion currents were recorded using borosilicate glass electrodes polished to resistances of 14-23 MΩ using the cilium patch method previously described (Vien et al., 2020). Single channel currents measured in the inside-out configuration were recorded in symmetrical sodium concentrations. […] Calcium was buffered with 5 EGTA (ethylene glycol-bis(o-aminoethyl ether)-N,N,N′,N′-tetraacetic acid), 5 Na4-BAPTA (Glycine, N, N′-[1,2-ethanediylbis(oxy-2,1-phenylene)]bis[N-(carboxymethyl)]-,tetrasodium) and 0.5 EDTA […]; free calcium was calculated using Maxchilator and titration of 1 M CaCl2) solution (Bers et al., 2010); pH was adjusted to 7.3 using NaOH. […] Whole cell currents used to measure CDD were also recorded in symmetrical sodium concentration, placing the internal recording solution in the pipette electrode and the external recording solution in the bath. […]

Work on [Ca+2] [Ca^2+, calcium] yielded an EC50 of 1.2 ± 0.4 µM.
